Test results taken from patent US8114872B2, “Triazolyl aminopyrimidine compounds” (Eli Lilly and Company, priority 2007, dated 2012).
pEC50, pIC50: −log10 of the molar value. Like-named read-outs stand apart in the source and are kept apart here.

Legend:
[1] = system: HCT116 cells; experiment: Antiproliferative Assay (Alamar Blue); assay type: cell-based; conditions: Homo sapiens, HCT-116, e.g. 72 hours exposure, n=2, MSR 3.1, racemate, read-out: average IC50 (cell proliferation)
Description: The effects of compounds on cell proliferation can be determined using cells and cell proliferation methods well-known in the art (Robert C. Squatrito et al., Gynecological Oncology, 58, 101-105, (1995)). For example, HCT116 cells, which may be obtained from the American Type Culture Collection, may be seeded at ˜2000 cells/well in 96-well plates and allowed to attach overnight in a humidified CO2 incubator at 37° C. Following the 20-24 hour incubation, half-log serially diluted compounds are added and the plates are returned to the incubator. After an appropriate length of exposure (e.g., 72 hours), cell proliferation is estimated using well-known methods. In one method, 10 μL of a tetrazolium salt, such as Alamar Blue™ is added to the cell plates. After an appropriate exposure to the dye, fluorescence (530 nm excitation, 580 nm emission) is determined.

[2] = target: T1, Plk1-Flag-His6 tag fusion enzyme (Human Plk1) (Homo sapiens, UniProt P53350); experiment: Plk1 Inhibition Assay (33P-ATP filter plate kinase reaction, GST-Cdc25C(1-206) substrate); assay type: biochemical; conditions: 5.0 μM ATP, RT 60 min; MSR 3.6; racemate; read-out: Plk1 IC50 (absolute IC50)
T1 construct: made in house; host or cells: Sf9 insect cells (baculovirus, pFastBac vector); substrate in E. coli BL21 (pGEX-2T)
T1 sequence (P53350 whole entry, the tested form may be a part): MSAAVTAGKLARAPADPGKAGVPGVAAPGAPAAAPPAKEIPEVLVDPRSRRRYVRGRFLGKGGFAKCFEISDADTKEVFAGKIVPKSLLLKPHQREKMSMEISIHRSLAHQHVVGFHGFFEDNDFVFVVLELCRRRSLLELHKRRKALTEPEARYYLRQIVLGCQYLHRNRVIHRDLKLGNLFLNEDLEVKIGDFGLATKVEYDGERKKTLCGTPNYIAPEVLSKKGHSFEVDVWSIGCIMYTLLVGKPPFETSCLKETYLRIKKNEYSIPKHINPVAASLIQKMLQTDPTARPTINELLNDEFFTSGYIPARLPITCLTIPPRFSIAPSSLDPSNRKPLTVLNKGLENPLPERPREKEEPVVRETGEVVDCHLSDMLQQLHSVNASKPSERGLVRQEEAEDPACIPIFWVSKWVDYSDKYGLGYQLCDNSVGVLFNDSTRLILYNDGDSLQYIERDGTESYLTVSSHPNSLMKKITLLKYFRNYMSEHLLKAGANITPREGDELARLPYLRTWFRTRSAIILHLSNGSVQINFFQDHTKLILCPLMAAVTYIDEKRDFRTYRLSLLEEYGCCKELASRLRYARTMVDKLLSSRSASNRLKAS
Source text: Human Plk1 cDNA may be directly linked at one of its termini with a polynucleotide sequence expressing a His6 tag, such as the C-terminal FLAG-His6 tag, and inserted into an appropriate expression vector, such as a pFastBac™ vector (Invitrogen) and transfected into an appropriate system, such as baculovirus similar to what has been reported by Yue-Wei Qian, et al., Science, 282, 1701 (1998) for xPlk1. If a viral expression system is used, then the virus (e.g., baculovirus bearing a Plk1-Flag-His6 tag polynucleotide construct) is infected into a culture of a suitable host cell, such as Sf9 cells. […]
Plk1 kinase reactions contain Plk1-Flag-His6 tag fusion enzyme (0.2 ng/μL) in a buffer containing 50 mM HEPES, pH 7.3, 1.0 mM dithiothreitol, 5.0 μM ATP, 10 mM MgCl2, 0.01% TRITON® X-100, 0.4 μCi ^33P-ATP, and 0.06 μg/μL GST-Cdc25c (1-206) peptide. […] Wells are dried before addition of 40 μL of MicroScintTM20 (Packard) and then counted on a Wallac MICROBETA® Jet. The percentage inhibition values from the 10-point concentration response data are subsequently analyzed, for example, using ACTIVITY BASE™ software (IDBS), using a 4-parameter logistic equation. Absolute IC50 values are calculated from the resulting curve fit.

[3] = system: HeLa Cells; experiment: pHH3(S10), Mitotic Cells, and DNA Content Assays; assay type: cell-based; conditions: Homo sapiens, 23 hours exposure
Description: HeLa Cells are plated at 200 cells/well in 96 well […] Dickinson BIOCOAT™ plates, and are incubated in MEM (Minimum Essential Medium) with 10% FBS (Fetal Bovine Serum) in 37° C., 5% CO2 for 24 hours. Cells are treated by adding compound (in 0.25% DMSO) to the medium, dosing at 10 points across the range […] to 0.0098 μM. After 23 hours exposure to the compounds, cells are fixed, for example with the PREFER™ fixative for 30 min then are permeabilized with 0.1% TRITON® X100 in phosphate buffered saline (PBS) solution for 15 min. Cells are washed 3 times with PBS then digested with 50 μg/mL RNAse. Primary antibody, phosphohistone H3, is added at 1:500 in PBS with 1% bovine serum albumin (BSA) to the cells over night at 4° C. After 3 PBS washes, cells are incubated with Alexa488 labeled secondary antibody for 1 hour at RT. Again they are washed 3 times with PBS, and then 15 μM propidium iodide is added for 30 min to stain nuclei. Fluorescence Plates are scanned with ACUMEN EXPLORER™ [Laser-scanning fluorescence microplate cytometer (comprising of 488 nm argon ion laser excitation and multiple photomultiplier tube detection), manufactured by TTP LABTECH LTD] to measure anti-phosphohistone H3 Serine 10, DNA content and mitotic cells as measured by DNA condensation. Image analysis are based on cellular fluorescent signals for identifying cells in different subpopulations. pHH3(S10) positive cells are identified by mean intensity at 500-530 nm above the threshold. Total intensity at 655-705 nm from propidium iodide/DNA is used to identify individual cells (cells with DNA content from 2N to 4N) and subpopulations in cell cycle (2N cells, 4N cells). Peak intensity at 575-640 nm is used to identify DNA condensation that is used as the marker to identify mitotic cells among 4N cells. Assay outputs are percentage of each identified subpopulations, % pHH3, % 2N, % 4N, % mitotic and total cell number. The EC50 is determined by curve fitting to a four parameter logistic for each output using ACTIVITY BASE™.

[4] = in man, cited from earlier work
[5] = system: HCT116, A549 and NCIH460 murine xenografts; conditions: cited from earlier work

Row | pIC50 [1] | pIC50 [2] | pEC50 ([3]; MSR 2.4, racemate, read-out: DNA content EC50) | pEC50 ([3]; MSR 2.5, racemate, read-out: mitotic EC50) | pEC50 ([3]; MSR 2.6, racemate, read-out: pHH3(s10) EC50) | SMILES | dose-limiting toxicity ([4]; phase II clinical trials) | clearance (CL) [4] | activity in preclinical xenograft models [5]
1 | 7.51 | 7.92 | 7.52 | 7.64 | 7.60 | CC(N)c1cnc(F)cc1-c1cccc2cc(-c3nc(NCCn4ccnn4)ncc3F)sc12 (racemic) [Example 41, N-(2-(1H-1,2,3-Triazol-1-yl)ethyl)-4-(7-(5-(1-aminoethyl)-2-fluoropyridin-4-yl)benzo[b]thiophen-2-yl)-5-fluoropyrimidin-2-amine] |  |  | 
2 |  |  |  |  |  | CC[C@@H]1C(=O)N(C)c2cnc(Nc3ccc(C(=O)NC4CCN(C)CC4)cc3OC)nc2N1C1CCCC1 [BI-2536] | dose limited by myelosupression | > 1000 mL/min | demonstrated activity
